Test results from BindingDB's records for doi:10.1016/s0960-894x(00)00462-5 (Smithkline Beecham Pharmaceuticals, 2001).

What was measured:
[1] = molecular target: Capsid scaffolding protein / assemblin protease (Human cytomegalovirus) (UniProt P16753); assay: In vitro inhibitory activity against human cytomegalovirus (hCMV) protease in the absence of zinc
[2] = molecular target: Capsid scaffolding protein / assemblin protease (Human cytomegalovirus) (UniProt P16753); assay: In vitro inhibitory activity against human cytomegalovirus (hCMV) protease in the presence of zinc
[3] = molecular target: Capsid scaffolding protein / assemblin protease (Human cytomegalovirus) (UniProt P16753); assay: as above; remark: listed apart in the source

Capsid scaffolding protein / assemblin protease (Human cytomegalovirus), sequence (P16753 whole entry, looked up): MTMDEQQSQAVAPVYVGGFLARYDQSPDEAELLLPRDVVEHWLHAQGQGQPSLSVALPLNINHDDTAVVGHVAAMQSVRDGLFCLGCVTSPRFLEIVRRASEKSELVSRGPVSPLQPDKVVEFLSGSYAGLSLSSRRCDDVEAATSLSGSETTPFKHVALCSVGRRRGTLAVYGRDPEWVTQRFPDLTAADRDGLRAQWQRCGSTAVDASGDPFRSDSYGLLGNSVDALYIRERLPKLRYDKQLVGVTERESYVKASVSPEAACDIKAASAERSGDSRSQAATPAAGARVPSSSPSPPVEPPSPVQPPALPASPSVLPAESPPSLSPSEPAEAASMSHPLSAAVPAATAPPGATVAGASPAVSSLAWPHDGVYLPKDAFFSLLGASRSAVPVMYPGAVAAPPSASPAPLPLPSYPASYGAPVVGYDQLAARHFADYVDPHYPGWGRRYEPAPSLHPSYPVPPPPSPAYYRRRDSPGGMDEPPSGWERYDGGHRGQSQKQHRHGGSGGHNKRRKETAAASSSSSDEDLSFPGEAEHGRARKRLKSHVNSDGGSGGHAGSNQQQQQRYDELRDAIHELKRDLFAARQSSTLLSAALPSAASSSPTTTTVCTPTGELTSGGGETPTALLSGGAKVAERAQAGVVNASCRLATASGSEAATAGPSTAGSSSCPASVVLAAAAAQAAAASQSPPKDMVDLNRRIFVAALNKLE

| Structure (SMILES) | IC50 [1] [µM] | IC50 [2] [µM] | IC50 [3] [µM] |
| --- | --- | --- | --- |
| CCCCCCCCSc1ncc(Cc2cn(CC(=O)NC(Cc3ccccc3)C(=O)OCc3ccccc3)cn2)[nH]1 (stereo not drawn) [2-{2-[4-(2-Octylsulfanyl-1H-imidazol-4-ylmethyl)-imidazol-1-yl]-acetylamino}-3-phenyl-propionic acid benzyl ester] | 125 | 41 | – |
| CCCCCCCCSc1ncc(Cc2cn(CC(=O)NC(CC(=O)OCc3ccccc3)C(=O)OCc3ccccc3)cn2)[nH]1 (stereo not drawn) [2-{2-[4-(2-Octylsulfanyl-1H-imidazol-4-ylmethyl)-imidazol-1-yl]-acetylamino}-succinic acid dibenzyl ester] | 15 | – | 5 |
| CCCCCCCCSc1ncc(Cc2cn(Cc3ccc(C(=O)OC)cc3)cn2)[nH]1 [4-[4-(2-Octylsulfanyl-1H-imidazol-4-ylmethyl)-imidazol-1-ylmethyl]-benzoic acid methyl ester] | > 150 | – | 7 |
| CCCCCCCCSc1ncc(Cc2cn(Cc3ccc(C(=O)NCC4CC4)cc3)cn2)[nH]1 [N-Cyclopropylmethyl-4-[4-(2-octylsulfanyl-1H-imidazol-4-ylmethyl)-imidazol-1-ylmethyl]-benzamide] | > 150 | – | 15 |
